# Source: patent publication US20210186879A1, “TARGETED DELIVERY OF HYDROPHILIC DRUGS TO LUNG” (DOUBLE BOND PHARMACEUTICALS AB, priority 2016, published 2021)
# Legend:
# [1] = Solubility in aqueous ethanol (UV method); format: physicochemical; details: for Solubility in 20% ethanol: doxycycline salts, Table 9, in mg/mL
# Description: The mixture was centrifuged at 3000 rpm for 10 min and the supernatant filtered through a 0.2 micrometer filter to remove aggregates of undissolved solid product. The solubility of the compound was determined by a UV method. Particle size analysis was accomplished by laser diffraction method.
# [2] = In vivo distribution of doxorubicin in lung and blood serum of Wistar rats; details: 4 hours; for Blood serum DOX / Lung tissue DOX: 5 mg/kg i.v. single bolus, ± SD
# Description: (§1) For in vivo investigation both rats and rabbits were used: female Wistar rats 60-75 days old weighing 300 g±30 g and Californian breed male rabbits 75-90 days old weighing 2000 g±250 g were selected. […] Different doxorubicin containing formulations with a total doxorubicin dose 5 mg/kg were administered via a single bolus injection into the tail for rats and via a slow flow of 1 ml/min in the marginal ear vein for rabbits.
# (§2) Five or six pieces of lung tissue of a total weight of about 1 g were taken from different parts of a lung. The samples were homogenized with a solution of aqueous ethanol containing HCl for 20 s at 7000 rpm and for 10 s at 11000 rpm. […] Doxorubicin and doxycycline (DOC) concentration in the final supernatant was determined with fluorometric analysis and high-performance liquid chromatography respectively.
# An aqueous solution of doxorubicin hydrochloride, an aqueous suspension of doxorubicin alkane sulfate and an aqueous suspension of doxorubicin alkyl sulfonate were administered via a single bolus injection into the tail Animals were sacrificed after 4 hours after administered via a single bolus injection into the tail; total doxorubicin dose 5 mg/kg. […] The results are summarized in Table 7 and illustrated in FIG. 10.
# [3] = In vivo distribution of doxorubicin in lung and femoral muscle of Californian rabbits; details: 1.25 mg/kg i.v. marginal ear vein, 4 hours, ± SD
# Description: as §1, §2
# Suspension of complexes of doxorubicin and doxorubicin hydrochloride were administered via a slow flow of 1 ml/min to rabbits in the marginal ear vein with a total doxorubicin dose 1.25 mg/kg. Animals were sacrificed after 4 hours after administration. Concentration of doxorubicin in lung and femoral muscle was determined in accordance to the procedure described above. As it is seen from table 8 the concentration of doxorubicin in femoral muscle as a representation of a system concentration is not increased for complexes compared with doxorubicin hydrochloride.
# [4] = In vivo distribution of doxycycline in lung and blood serum of Wistar rats; details: 30 min; for Blood serum Difference / Lung tissue Difference: relative to control CI-DOX (1); for Blood serum DOX / Lung tissue DOX: doxycycline, 3 mg/kg i.v. single bolus, ± SD
# Description: as §2
# [5] = doxorubicin alkyl sulfates and alkane sulfonates, 30% ethanol (v/v)
# [6] = doxycycline alkane sulfonates and alkyl sulfates, 20% aqueous ethanol
# [7] = irinotecan alkane sulfonates, 30% ethanol (v/v) per table title
# [8] = mitoxantrone alkyl sulfates and alkane sulfonates, 30% ethanol (v/v)
compound,measurement,setting,value
CCCCCCCCCCOS(=O)(=O)O.COc1cccc2c1C(=O)c1c(O)c3c(c(O)c1C2=O)CC(O)(C(=O)CO)CC3OC1CC(N)C(O)C(C)O1 (stereo not shown) [doxorubicin CnH2n+1OSO3^− n=10],Solubility,[1]; [5],507.7 µg/mL
CCCCCCCCCCCCOS(=O)(=O)O.COc1cccc2c1C(=O)c1c(O)c3c(c(O)c1C2=O)C[C@@](O)(C(=O)CO)C[C@@H]3O[C@H]1C[C@H](N)[C@H](O)[C@H](C)O1 [doxorubicin CnH2n+1OSO3^− n=12],Blood serum DOX,[2],0.021 ± 0.007 µg/kg
same,Lung tissue DOX,[2],0.77 ± 0.19 µg/kg
same,Femoral muscle DOX,[3],0.20 ± 0.02 µg/kg
same,Lung tissue DOX,[3],1.61 ± 0.25 µg/kg
CCCCCCCCCCCCCCCCCCOS(=O)(=O)O.COc1cccc2c1C(=O)c1c(O)c3c(c(O)c1C2=O)CC(O)(C(=O)CO)CC3OC1CC(N)C(O)C(C)O1 (stereo not shown) [doxorubicin CnH2n+1OSO3^− n=18],Solubility,[1]; [5],2.6 µg/mL
CCCCCCCCCCS(=O)(=O)O.COc1cccc2c1C(=O)c1c(O)c3c(c(O)c1C2=O)CC(O)(C(=O)CO)CC3OC1CC(N)C(O)C(C)O1 (stereo not shown) [doxorubicin CnH2n+1SO3^− n=10],Solubility,[1]; [5],1064 µg/mL
CCCCCCCCCCCCS(=O)(=O)O.COc1cccc2c1C(=O)c1c(O)c3c(c(O)c1C2=O)CC(O)(C(=O)CO)CC3OC1CC(N)C(O)C(C)O1 (stereo not shown) [doxorubicin CnH2n+1SO3^− n=12],Blood serum DOX,[2],0.014 ± 0.003 µg/kg
same,Lung tissue DOX,[2],0.88 ± 0.09 µg/kg
same,Blood serum Relative difference,[2]; relative to control CI-DOX (1),0.75
same,Lung tissue Relative difference,[2]; relative to control CI-DOX (1),1.24
CCCCCCCCCCCCCCS(=O)(=O)O.COc1cccc2c1C(=O)c1c(O)c3c(c(O)c1C2=O)CC(O)(C(=O)CO)CC3OC1CC(N)C(O)C(C)O1 (stereo not shown) [doxorubicin CnH2n+1SO3^− n=14],Solubility,[1]; [5],45.96 µg/mL
CCCCCCCCCCCCCCCCCCS(=O)(=O)O.COc1cccc2c1C(=O)c1c(O)c3c(c(O)c1C2=O)CC(O)(C(=O)CO)CC3OC1CC(N)C(O)C(C)O1 (stereo not shown) [doxorubicin CnH2n+1SO3^− n=18],Solubility,[1]; [5],2.79 µg/mL
CC1c2cccc(O)c2C(O)=C2C(=O)C3(O)C(O)=C(C(N)=O)C(=O)C(N(C)C)C3C(O)C21.CCCCCCCCCCOS(=O)(=O)O (stereo not shown) [doxycycline CnH2n+1OSO3^− n=10],Solubility,[1]; [6],3777 µg/mL
CC1c2cccc(O)c2C(O)=C2C(=O)C3(O)C(O)=C(C(N)=O)C(=O)C(N(C)C)C3C(O)C21.CCCCCCCCCCCCOS(=O)(=O)O (stereo not shown) [doxycycline CnH2n+1OSO3^− n=12],Blood serum Difference,[4],1.10
same,Lung tissue Difference,[4],3.20
same,Blood serum DOX,[4],127 ± 22 ng/mL
same,Lung tissue DOX,[4],551 ± 185 ng/mL
CC1c2cccc(O)c2C(O)=C2C(=O)C3(O)C(O)=C(C(N)=O)C(=O)C(N(C)C)C3C(O)C21.CCCCCCCCCCCCCCOS(=O)(=O)O (stereo not shown) [doxycycline CnH2n+1OSO3^− n=14],Solubility,[1]; [6],117.8 µg/mL
same,Solubility in 20% ethanol,[1],0.1178
same,Blood serum Difference,[4],0.39
same,Lung tissue Difference,[4],9.20
same,Blood serum DOX,[4],45 ± 1 ng/mL
same,Lung tissue DOX,[4],1582 ± 101 ng/mL
CC1c2cccc(O)c2C(O)=C2C(=O)C3(O)C(O)=C(C(N)=O)C(=O)C(N(C)C)C3C(O)C21.CCCCCCCCCCCCCCCCOS(=O)(=O)O (stereo not shown) [doxycycline CnH2n+1OSO3^− n=16],Solubility,[1]; [6],31.99 µg/mL
CC1c2cccc(O)c2C(O)=C2C(=O)C3(O)C(O)=C(C(N)=O)C(=O)C(N(C)C)C3C(O)C21.CCCCCCCCCCCCCCCCCCOS(=O)(=O)O (stereo not shown) [doxycycline CnH2n+1OSO3^− n=18],Solubility,[1]; [6],5.23 µg/mL
CC1c2cccc(O)c2C(O)=C2C(=O)C3(O)C(O)=C(C(N)=O)C(=O)C(N(C)C)C3C(O)C21.CCCCCCCCCCS(=O)(=O)O (stereo not shown) [doxycycline CnH2n+1SO3^− n=10],Solubility,[1]; [6],3165 µg/mL
CC1c2cccc(O)c2C(O)=C2C(=O)C3(O)C(O)=C(C(N)=O)C(=O)C(N(C)C)C3C(O)C21.CCCCCCCCCCCCS(=O)(=O)O (stereo not shown) [doxycycline CnH2n+1SO3^− n=12],Solubility,[1]; [6],320.3 µg/mL
same,Solubility in 20% ethanol,[1],0.3203
same,Blood serum Difference,[4],0.53
same,Lung tissue Difference,[4],5.48
same,Blood serum DOX,[4],61 ± 7 ng/mL
same,Lung tissue DOX,[4],943 ± 600 ng/mL
CC1c2cccc(O)c2C(O)=C2C(=O)C3(O)C(O)=C(C(N)=O)C(=O)C(N(C)C)C3C(O)C21.CCCCCCCCCCCCCCS(=O)(=O)O (stereo not shown) [doxycycline CnH2n+1SO3^− n=14],Solubility,[1]; [6],55.1 µg/mL
CC1c2cccc(O)c2C(O)=C2C(=O)C3(O)C(O)=C(C(N)=O)C(=O)C(N(C)C)C3C(O)C21.CCCCCCCCCCCCCCCCS(=O)(=O)O (stereo not shown) [doxycycline CnH2n+1SO3^− n=16],Solubility,[1]; [6],10.34 µg/mL
same,Solubility in 20% ethanol,[1],0.0103
same,Blood serum Difference,[4],0.22
same,Lung tissue Difference,[4],11.74
same,Blood serum DOX,[4],25 ± 2 ng/mL
same,Lung tissue DOX,[4],2020 ± 117 ng/mL
CC1c2cccc(O)c2C(O)=C2C(=O)C3(O)C(O)=C(C(N)=O)C(=O)C(N(C)C)C3C(O)C21.CCCCCCCCCCCCCCCCCCS(=O)(=O)O (stereo not shown) [doxycycline CnH2n+1SO3^− n=18],Solubility,[1]; [6],1.81 µg/mL
CCCCCCCCCCS(=O)(=O)O.CCc1c2c(nc3ccc(OC(=O)N4CCC(N5CCCCC5)CC4)cc13)-c1cc3c(c(=O)n1C2)COC(=O)C3(O)CC (stereo not shown) [irinotecan alkane sulfonate n=10],Solubility,[1]; [7],834.8 µg/mL
CCCCCCCCCCCCS(=O)(=O)O.CCc1c2c(nc3ccc(OC(=O)N4CCC(N5CCCCC5)CC4)cc13)-c1cc3c(c(=O)n1C2)COC(=O)C3(O)CC (stereo not shown) [irinotecan alkane sulfonate n=12],Solubility,[1]; [7],154.5 µg/mL
CCCCCCCCCCCCCCS(=O)(=O)O.CCc1c2c(nc3ccc(OC(=O)N4CCC(N5CCCCC5)CC4)cc13)-c1cc3c(c(=O)n1C2)COC(=O)C3(O)CC (stereo not shown) [irinotecan alkane sulfonate n=14],Solubility,[1]; [7],70.64 µg/mL
CCCCCCCCCCCCCCCCS(=O)(=O)O.CCc1c2c(nc3ccc(OC(=O)N4CCC(N5CCCCC5)CC4)cc13)-c1cc3c(c(=O)n1C2)COC(=O)C3(O)CC (stereo not shown) [irinotecan alkane sulfonate n=16],Solubility,[1]; [7],14.76 µg/mL
CCCCCCCCOS(=O)(=O)O.CCCCCCCCOS(=O)(=O)O.O=C1c2c(O)ccc(O)c2C(=O)c2c(NCCNCCO)ccc(NCCNCCO)c21 [mitoxantrone CnH2n+1OSO3^− n=8],Solubility,[1]; [8],780.6 µg/mL
CCCCCCCCCCOS(=O)(=O)O.CCCCCCCCCCOS(=O)(=O)O.O=C1c2c(O)ccc(O)c2C(=O)c2c(NCCNCCO)ccc(NCCNCCO)c21 [mitoxantrone CnH2n+1OSO3^− n=10],Solubility,[1]; [8],175.8 µg/mL
CCCCCCCCCCCCCCOS(=O)(=O)O.CCCCCCCCCCCCCCOS(=O)(=O)O.O=C1c2c(O)ccc(O)c2C(=O)c2c(NCCNCCO)ccc(NCCNCCO)c21 [mitoxantrone CnH2n+1OSO3^− n=14],Solubility,[1]; [8],7.2 µg/mL
CCCCCCCCS(=O)(=O)O.CCCCCCCCS(=O)(=O)O.O=C1c2c(O)ccc(O)c2C(=O)c2c(NCCNCCO)ccc(NCCNCCO)c21 [mitoxantrone CnH2n+1SO3^− n=8],Solubility,[1]; [8],1348 µg/mL
CCCCCCCCCCS(=O)(=O)O.CCCCCCCCCCS(=O)(=O)O.O=C1c2c(O)ccc(O)c2C(=O)c2c(NCCNCCO)ccc(NCCNCCO)c21 [mitoxantrone CnH2n+1SO3^− n=10],Solubility,[1]; [8],294.9 µg/mL
CCCCCCCCCCCCS(=O)(=O)O.CCCCCCCCCCCCS(=O)(=O)O.O=C1c2c(O)ccc(O)c2C(=O)c2c(NCCNCCO)ccc(NCCNCCO)c21 [mitoxantrone CnH2n+1SO3^− n=12],Solubility,[1]; [8],683.1 µg/mL
CCCCCCCCCCCCCCS(=O)(=O)O.CCCCCCCCCCCCCCS(=O)(=O)O.O=C1c2c(O)ccc(O)c2C(=O)c2c(NCCNCCO)ccc(NCCNCCO)c21 [mitoxantrone CnH2n+1SO3^− n=14],Solubility,[1]; [8],2.03 µg/mL
